Data as given in patent US20200121807A1, “Anti-Cancer Agents” (UEA ENTERPRISES LIMITED, priority 2016, published 2020).

Assays:
[1] = Toxicity in PC-3 tumour-bearing NSG mice (body weight, liver weight, WCC); format: in vivo; conditions: after 2 weeks of administration
Procedure: At Day 30 mice were sacrificed and liver weight measurements were performed. Liver weight was normalised to control group (healthy group no treatment). *: p<0.05 vs. control group (ANOVA). Data is expressed as Mean±SE (n=7).

[2] = in vivo; cited from earlier work
[3] = test system: PC-3 metastatic prostate cancer cells; assay: PC-3 prostate tumour xenograft, free agents, tumour weight; format: in vivo, Balb/c nude mice; conditions: 5 mg/kg single agent, prostate tumours
Procedure: (§1) Tumour weight at week 5. Columns, mean of three experiments performed in triplicate. Bars, SE. * p<0.05 versus control.
(§2) Mice and tumours were weighed.
(§3) Data are presented as the mean values of at least three independent experiments normalised to control±standard error of the mean (SE) calculated using OriginPro. Statistical significance between two groups was conducted by unpaired Student's t test. p value of <0.05 is considered statistically significant.

SK1 = target: T1, SK1 (Homo sapiens, UniProt Q9NYA1); assay: SK1 activity by radiolabelling in PC-3 cells; format: cell-based; conditions: PC-3 cells treated for 48 h
T1 construct: endogenous in cells; host or cells: PC-3 cells (obtained from DSMZ)
Procedure: (D) PC-3 cells were treated for 48 h as indicated in figure and SK1 activity was measured by radiolabelling. Columns, points, percentage relative to the control. Data is expressed as Mean±SE (n=3). * p<0.05 versus control, ** p<0.05 versus free drug treatment (DTX+FTY). (E) Cytotoxicity of free drugs was assessed using the MTT assay (48 hr: dark shading; 72 hr: light shading; 96 hr: no shading); the final two columns showing sequential administration of docetaxel on day 1 (D1) followed by FTY720 on day 2 (D2), or administration of FTY720 on day 1 (D1) followed by docetaxel on day 2 (D2).
SK1 assay was performed using radiolabelling as previously described (Alshaker et al (2014), above, plus: Alshaker, H. et al. Sphingosine kinase 1 contributes to leptin-induced STAT3 phosphorylation through IL-6/gp130 transactivation in oestrogen receptor-negative breast cancer. Breast Cancer Res Treat 149, 59-67, doi:10.1007/s10549-014-3228-8 (2015); and Pchejetski, D. et al. The involvement of sphingosine kinase 1 in LPS-induced Toll-like receptor 4-mediated accumulation of HIF-1alpha protein, activation of ASK1 and production of the pro-inflammatory cytokine IL-6. Immunol Cell Biol 89, 268-274, doi:10.1038/icb.2010.91 (2011)), in conditions favouring SK1 activity and inhibiting SK2 activity.

[4] = test system: MDA-MB-231 metastatic triple negative breast cancer cell; assay: MDA-MB-231 breast tumour xenograft, free agents, tumour weight; format: in vivo, Balb/c nude mice; conditions: 5 mg/kg single agent, breast tumours
Procedure: as §1, §2, §3

T1 sequence (Q9NYA1 whole entry): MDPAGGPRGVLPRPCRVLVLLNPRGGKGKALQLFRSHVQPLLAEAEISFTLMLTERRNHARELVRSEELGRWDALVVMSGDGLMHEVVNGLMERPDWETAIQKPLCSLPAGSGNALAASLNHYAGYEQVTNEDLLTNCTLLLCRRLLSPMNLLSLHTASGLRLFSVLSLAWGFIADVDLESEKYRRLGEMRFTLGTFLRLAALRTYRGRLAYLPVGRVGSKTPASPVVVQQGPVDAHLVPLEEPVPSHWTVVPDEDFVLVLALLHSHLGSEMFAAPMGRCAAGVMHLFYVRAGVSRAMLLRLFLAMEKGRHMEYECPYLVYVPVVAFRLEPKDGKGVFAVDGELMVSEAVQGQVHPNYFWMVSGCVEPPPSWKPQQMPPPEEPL

SMILES	white cell count [1]	half-life [2]	tumour weight reduction, individual drug treatment [3]	SK1 activity (SK1)	tumour weight reduction, individual drug treatment [4]	circulation half-life [2]
CCCCCCCCc1ccc(CCC(N)(CO)CO)cc1 [FTY720, fingolimod]	significantly reduced white cell count	140 to 220 h	–	–	–	–
Oc1ccc(Nc2nc(-c3ccc(Cl)cc3)cs2)cc1 [SK1-II]	–	–	did not reduce the tumour weight significantly	–	–	–
CC(=O)O[C@@]12CO[C@@H]1C[C@H](O)[C@@]1(C)C(=O)[C@H](O)C3=C(C)[C@@H](OC(=O)[C@H](O)[C@@H](NC(=O)OC(C)(C)C)c4ccccc4)C[C@@](O)([C@@H](OC(=O)c4ccccc4)[C@H]21)C3(C)C [docetaxel]	–	–	did not reduce the tumour weight significantly	insignificant increase	did not reduce the tumour weight significantly	~17 h
